Assay results published in a melting point compilation (Tetko et al.; mined from patent text by program, amines drawn as free bases though some values may be those of a salt).
Residues, ends and D or L forms follow the SMILES beside them. *: point of attachment. Boc = CC(C)(C)OC(=O)*; OBn = c1ccc(CO*)cc1; βAla = NCCC(=O)O

With `CCOc1nc(CCO)nc(N2CCc3ccccc3CC2)c1C#N` the melting point was 108 to 111 °C. Work on `O=C1NC(=S)SC1Cc1cccc2c1CCC(=O)N2Cc1ccc(Br)cc1` (stereo not given) yielded a melting point of 191 to 192 °C. For `COc1ccc(C2(O)C(=O)Nc3ccc(Cl)cc32)cc1` (stereo not given), the melting point was 202 °C. `CC(C)(C)OC(=O)N=C(c1ccc(C(=O)Nc2ccc(C(=O)NCCC(=O)OCc3ccccc3)cc2)cc1)N(C(=O)OC(C)(C)C)C(=O)OC(C)(C)C` gave a melting point of 164 to 165 °C. In the case of `Cc1noc(C)c1S(=O)(=O)Nc1ccc2c(c1)S(=O)(=O)C=C(c1c(O)c3cc(F)ccc3n(CCC3CC3)c1=O)N2`, the melting point is reported as 150 to 157 °C. `CC(C)(C)c1nn(C(C)(C)C)c(N)c1C#N` showed a melting point of 78 to 80 °C. `CN1CCN(c2nn(-c3ccc(O)cc3)c3ccccc23)CC1` showed a melting point of 191 to 193 °C. Compound `CC(C)n1nc(-c2sc(C(=O)NCc3ccccn3)nc2-c2cccc(Cl)c2)ccc1=O` has a melting point of 168 to 170 °C. Compound `CCCCc1cn(Cc2ccc(-c3ccccc3C(=O)OC)cc2)c2cc(C(=O)N3CCCC3)ccc2c1=O` has a melting point of 191 °C. Compound `CNC(=O)c1ccccc1S(=O)(=O)Cc1c(O[C@H](Cn2ccnc2)c2ccccc2)ccc2c1CCCC2=O` has a melting point of 249 to 251 °C. Compound `COC(=O)[C@@H]1[C@H](NC(=O)Cc2ccccc2)C(=O)N1Cc1ccc(OC)cc1OC` (relative stereo) has a melting point of 124 to 126 °C. With `CC(C)c1cc(C(C)C)c(CC#N)c(C(C)C)c1C#N` the melting point was 98 to 101 °C. `Cc1ccc(-c2nc(O)cc(-c3ccccc3)n2)cc1` showed a melting point of 282 to 283 °C. Compound `CC=CCn1c(C)c(C)c2cnnc(OCc3cccs3)c21` has a melting point of 72 to 75 °C. For `N#Cc1cnc(Nc2ccc(OCCn3nccn3)cc2)nc1-c1ccccc1`, the melting point was 156 °C. Work on `N#Cc1c(-c2cccs2)[nH]c(C(F)(F)F)c1Cl` yielded a melting point of 221 to 223 °C. With `CCC(CC)Nc1c(NCc2cc(C)cc(C#N)c2)c(=O)c1=O` the melting point was 248 to 250 °C. For `COc1cc(-c2ccccc2C)cc2oc(=O)c(C)c(C)c12`, the melting point was 145 °C. `COc1ccc(C2(C#Cc3ccccn3)CCC3(CC2)OCCO3)cc1OC1CCCC1` showed a melting point of 41 to 42 °C. `Cc1ccccc1C(=O)Nc1ccc(C(=O)N2Cc3ccnn3Cc3ccccc32)c(Cl)c1` gave a melting point of 241 to 244 °C. With `CC(C)[C@H](NC(=O)Cc1csc(N(C)C)n1)C(=O)N[C@@H](Cc1ccccc1)C[C@H](O)[C@H](Cc1ccccc1)NC(=O)Cc1cncs1` the melting point was 162 to 165 °C. `CC(=O)NC1CCCCC1` gave a melting point of 108 to 109 °C. Compound `COc1ccc(S(=O)(=O)C(Cc2cccnc2)(CC2CCCCC2)C(=O)NO)cc1` (stereo not given) has a melting point of 57 to 60 °C. Compound `C[C@@H]1C(=O)C[C@H]2C[C@@H]1OO[C@@]2(C)/C=C\c1ccc(F)cc1` has a melting point of 84 °C. For `CC(CC(=O)NC(Cc1c[nH]c2ccccc12)C(=O)CCc1cc(C(F)(F)F)cc(C(F)(F)F)c1)c1ccccc1` (stereo not given), the melting point was 133 to 137 °C. `N#CN1CCN(c2nn(S(=O)(=O)c3ccccc3)c3ccccc23)CC1` gave a melting point of 178 to 180 °C. For `CC(C)(C(=O)O)c1ccc(C(=O)Nc2cn3cc(-c4ccsc4)ccc3n2)cc1`, the melting point was 304 to 306 °C. `CCOC(=O)C(=Cc1ccccc1)S(=O)(=O)NC(=O)Nc1nc(OC)cc(OC)n1` gave a melting point of 140 to 143 °C. With `COc1ccc(-c2cc3cc(F)c(F)cc3[nH]2)cc1NS(=O)(=O)c1cccc([N+](=O)[O-])c1` the melting point was 228 to 230 °C. `Cc1cc(OCCCC#Cc2ccc(OC(F)(F)F)cc2)ccc1OCC(=O)O` gave a melting point of 125 to 127 °C. `N=c1c2ccccc2ccc2ccccc12` gave a melting point of 60 to 62 °C. In the case of `O=C(Cc1ccccc1)Nc1ccc(-c2ccc(C(=O)O)c(=O)[nH]2)cc1`, the melting point is reported as greater than 280 °C. In the case of `O=C(O)Cc1cccc(Oc2ccccc2F)c1[N+](=O)[O-]`, the melting point is reported as 144 to 146 °C. Compound `COC(=O)C=Cc1ccc(OCC(C)=O)cc1` has a melting point of 117 to 118 °C. Work on `Cc1c(-c2ccc(C#N)cc2)n[nH]c1C(=O)O` yielded a melting point of 260 °C. With `Cc1c(C2CCC(Cc3ccccc3)(N(C)C)CC2)[nH]c2ccc(C(F)(F)F)cc12` (stereo not given) the melting point was 166 to 174 °C. In the case of `Nc1ccc(Cl)n2nc(SCc3ccccc3)nc12`, the melting point is reported as 113 to 114 °C. Compound `C/C=C\Cn1c(C(=O)c2cc(C)cc(C)c2)c(CC)c(=O)[nH]c1=O` has a melting point of 199 to 200 °C. `CN1CCN(C(=NO)C2=Nc3ccc(Cl)cc3C(c3ccccc3F)=NC2)CC1` gave a melting point of 198 to 200 °C. In the case of `COc1cccc2c1C(O)CC21CCN(CCCC(=O)c2ccc(F)cc2)C1` (stereo not given), the melting point is reported as 152 to 154 °C. For `C=C(C)CCOc1ccc([N+](=O)[O-])cc1Cl`, the melting point was 38 to 39 °C. With `CC(C)Oc1nn(CCO)cc1C(=O)NCc1ccc(C(F)(F)F)cc1` the melting point was 107 to 108 °C. `Cc1ccc(-c2c(-c3ccc(S(N)(=O)=O)cc3)cnn(-c3ccc(F)c(F)c3)c2=O)cc1F` showed a melting point of 198 to 200 °C. `CN1Cc2c(C(=O)OC(C)(C)C)ncn2-c2cccc(I)c2C1=O` gave a melting point of 203 to 204 °C. `Clc1ccc(OCC2CCCC(OC(CBr)c3ccc(Cl)cc3Cl)O2)c(Cl)c1` (stereo not given) gave a melting point of 104 to 105 °C. Compound `COc1cc(OC)c2c(=O)[nH]c(-c3cccc(-c4ccc(S(C)=O)s4)c3)nc2c1` (stereo not given) has a melting point of 289 to 290 °C. `Cc1ccsc1C(Cc1ccccc1NCN1C(=O)CCC1=O)N(C)C=O` (stereo not given) showed a melting point of 160 to 164 °C. Compound `COc1cc(CN2CCN(C(=O)c3ccc4c(c3)C(=O)c3ccccc3C4=O)CC2)cc(OC)c1OC` has a melting point of 158 to 160 °C. Work on `Cc1nc2c(OCc3ccccc3)cc(C(=O)N(C)C)cc2n1C` yielded a melting point of 159 to 160 °C. Work on `CC(C)n1nc(-c2c(NCc3ccccn3)nc(N)nc2-c2ccccc2)ccc1=O` yielded a melting point of 196 to 198 °C. Work on `CC(=O)Nc1c(N(C)C)cnn(C)c1=O` yielded a melting point of 123 to 124 °C. With `CCCCC(O)c1cccc(O)c1` (stereo not given) the melting point was 120 to 122 °C. `NS(=O)(=O)c1cc2ccc(O)cc2c(S(N)(=O)=O)c1-c1cccc(Cl)c1O` gave a melting point of 135 to 137 °C. Work on `CC(C)COc1ccc(COc2ccc(CC(=O)O)cc2Cl)cc1Cl` yielded a melting point of 128 to 129 °C. `CCN(CC)C(=O)CCC(=O)Oc1cc(-n2c(=O)cc(C(F)(F)F)n(C)c2=O)c(F)cc1Cl` gave a melting point of 91 to 93 °C. Compound `COc1cc2c(cc1OC)CN(c1nc(N)c3cc(OC)c(OC)cc3n1)CCC2` has a melting point of 122 to 124 °C. Compound `COc1cc2c(cc1OC)C(=CN1CCN(C(=O)c3ccco3)CC1)C(=O)N2` has a melting point of 158 to 160 °C. `CC(=O)Oc1c(C(C)C)c(-c2ccc(F)cc2)c(O)c(C(C)C)c1C(C)C` gave a melting point of 174 to 177 °C. `O=C(O)C=Cc1ccc(O)c(Cl)c1` showed a melting point of 180 to 182 °C. `CCOC(=O)c1ccc(NCCc2ccc(OCc3ccccc3)cc2)cc1` gave a melting point of 94 to 97 °C. Work on `O=C(O)COc1cc(Cl)ccc1C(=O)NCc1cccc([N+](=O)[O-])c1` yielded a melting point of 200 °C. Compound `COC(=O)C(C(C)C)N(C)S(=O)(=O)c1ccc(-c2ccc([N+](=O)[O-])cc2)cc1` (stereo not given) has a melting point of 117 to 118 °C. Compound `Cc1cc(SC2=C(O)CC(CCc3ccc(O)cc3)(CCc3ccc(O)cc3)OC2=O)c(C(C)(C)C)cc1OS(=O)(=O)N1CCN(C)CC1` has a melting point of 150 °C. With `COC(=O)n1cc(C=O)c(-c2ccc([N+](=O)[O-])o2)n1` the melting point was 187 to 189 °C. `CC(C)(C)OC(=O)NCCC(=O)NC(CC(=O)OCc1ccccc1)C(=O)NC(Cc1ccccc1)C(=O)OCc1ccccc1` (stereo not given) ({Boc-βAla}-Asp(OBn)-Phe-OBn; configuration not given here) gave a melting point of 124 to 125 °C.
